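Following 48 hours of exposure in 96-well plates, responses at five concentrations were used to interpolate endpoints linearly. At the GI50, growth is halved.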 Calls of active or inactive are those of the source. Cut-off read from the data, not from the text of the source: active = GI50 up to about 1.1 µM and inactive = higher.
How the values were obtained:
Assay in all cases: NCI-60 cell line screen, 48 h
U-251 = system: U-251
UO-31 = system: UO-31
SF-539 = system: SF-539
KM12 = system: KM12
NCI/ADR-RES = system: NCI/ADR-RES
SF-268 = system: SF-268
SR = system: SR
A549 = system: A549
EKVX = system: EKVX
HT-29 = system: HT-29
TK-10 = system: TK-10
HOP-92 = system: HOP-92
HOP-62 = system: HOP-62
SNB-19 = system: SNB-19
HCT-15 = system: HCT-15
M14 = system: M14
OVCAR-5 = system: OVCAR-5
SK-MEL-2 = system: SK-MEL-2
SNB-75 = system: SNB-75
HCC 2998 = system: HCC 2998

For COc1ccc2oc3c(ccc[n+]3C)c(=O)c2c1, the GI50 (U-251) was > 100 µM (inactive), the GI50 (UO-31) was > 100 µM (inactive) and the GI50 (SF-539) was > 100 µM (inactive). For the same compound, the GI50 (KM12) was > 100 µM (inactive), the GI50 (NCI/ADR-RES) was > 100 µM (inactive) and the GI50 (SF-268) was > 100 µM (inactive). The GI50 (SR) was > 100 µM (inactive), the GI50 (A549) was > 100 µM (inactive) and the GI50 (EKVX) was > 100 µM (inactive). For the same compound, the GI50 (HT-29) was > 100 µM (inactive), the GI50 (TK-10) was > 100 µM (inactive) and the GI50 (HOP-92) was > 100 µM (inactive). The GI50 (HOP-62) was > 100 µM (inactive), the GI50 (SNB-19) was > 100 µM (inactive) and the GI50 (HCT-15) was over 100 µM. The GI50 (M14) was > 100 µM (inactive), the GI50 (OVCAR-5) was > 100 µM (inactive) and the GI50 (SK-MEL-2) was > 100 µM (inactive). The GI50 (SNB-75) was > 100 µM (inactive) and the GI50 (HCC 2998) was > 100 µM (inactive).
